Read-outs that look alike come from different tables or passages of the source.
What was measured:
Type in all cases: cell-based
Escherichia coli (76 F) = experiment: MIC in broth, Gram- strains; conditions: 18 h, E. coli (76 F), read-out: Minimal Inhibitory Concentration (MIC)
Procedure: (§1) MICs were determined by a standard microdilution test, using serial two-fold dilutions of the substances in Mueller-Hinton broth.
(§2) The inoculum was prepared from an overnight culture in Mueller-Hinton broth matching the 0.5 Mc Farland (turbidity) standard (BRAY W. E., Clinical Laboratory Methods, 5th Ed. C. V. MOSBY, St. Louis, Mo. 1957), and was adjusted to a final concentration of 5.0×10^4 colony-forming units/ml.
(§3) Equal volumes (0.1 ml) of both bacterial suspensions and substance solutions were distributed in microtiter plates (Falcon, 96 wells, round bottom), and then placed in a humidified incubator (37° C.) for 18 hours.
(§4) Evaluation of the Minimal Inhibitory Concentration (MIC) in broth of 16 new substances for Gram- bacterial strains.
(§5) The following strains were used: Enterobacter (1), Escherichia (3), Klebsiella (3), Proteus (3); Pseudomonas (2); Salmonella (2), Serratia (1).

Klebsiella oxytoca (552) = experiment: MIC in broth, Gram- strains; conditions: 18 h, read-out: Minimal Inhibitory Concentration (MIC)
Procedure: as §1, §2, §3, §4, §5

[1] = system: Pseudomonas aeruginosa (3 E); experiment: MIC in broth, Gram- strains; conditions: 18 h, read-out: Minimal Inhibitory Concentration (MIC)
Procedure: as §1, §2, §3, §4, §5

[2] = system: Salmonella typhimurium (D.S.); experiment: MIC in broth, Gram- strains; conditions: Salmonella enterica, 18 h, read-out: Minimal Inhibitory Concentration (MIC)
Procedure: as §1, §2, §3, §4, §5

Gram- bacterial strains = experiment: Mean MIC in broth and resistant strain number, Gram- strains; conditions: 18 h, read-out: Mean MIC values
Procedure: as §1, §2, §3, §4, §5

[3] = system: Staphylococcus aureus (LC1); experiment: MIC in broth, Gram+ strains; conditions: S. aureus (LC1), Mueller-Hinton broth, 37° C., 18 hours, read-out: Minimal Inhibitory Concentration (MIC)
Procedure: (§6) Evaluation of the Minimal Inhibitory Concentration (MIC) in broth of 15 new substances for Gram+ bacterial strains.
(§7) The following strains were used: Staphylococcus aureus (4); Streptococcus faecalis (8); Bacillus pumilus (1); Bacillus subtilis (1).
as §1, §2, §3
(§8) The results, in terms of MIC values, resistant strain number and mean MIC values versus susceptible strains, are illustrated in Tables 1-6.

[4] = system: Streptococcus faecalis (519); experiment: MIC in broth, Gram+ strains; conditions: Enterococcus faecalis; S. faecalis (519), Mueller-Hinton broth, 37° C., 18 hours; read-out: Minimal Inhibitory Concentration (MIC)
Procedure: as §6, §7, §1, §2, §3, §8

[5] = system: Streptococcus faecalis (518); experiment: MIC in broth, Gram+ strains; conditions: Enterococcus faecalis; S. faecalis (518), Mueller-Hinton broth, 37° C., 18 hours; read-out: Minimal Inhibitory Concentration (MIC)
Procedure: as §6, §7, §1, §2, §3, §8

[6] = system: Staphylococcus aureus (303); experiment: MIC in broth, Gram+ strains; conditions: S. aureus (303), Mueller-Hinton broth, 37° C., 18 hours, read-out: Minimal Inhibitory Concentration (MIC)
Procedure: as §6, §7, §1, §2, §3, §8

Gram+ bacterial strains = experiment: Mean MIC in broth and resistant strain number, Gram+ strains; conditions: 18 h, versus susceptible strains
Procedure: as §6, §7, §1, §2, §3, §8

Escherichia coli (92 F) = experiment: MIC in broth, Gram- strains; conditions: 18 h, E. coli (92 F), read-out: Minimal Inhibitory Concentration (MIC)
Procedure: as §1, §2, §3, §4, §5

[7] = system: Enterobacter aerogenes (UM); experiment: MIC in broth, Gram- strains; conditions: Klebsiella aerogenes, 18 h, read-out: Minimal Inhibitory Concentration (MIC)
Procedure: as §1, §2, §3, §4, §5

Proteus vulgaris (UM) = experiment: MIC in broth, Gram- strains; conditions: 18 h, read-out: Minimal Inhibitory Concentration (MIC)
Procedure: as §1, §2, §3, §4, §5

[8] = system: Streptococcus faecalis (516); experiment: MIC in broth, Gram+ strains; conditions: Enterococcus faecalis; S. faecalis (516), Mueller-Hinton broth, 37° C., 18 hours; read-out: Minimal Inhibitory Concentration (MIC)
Procedure: as §6, §7, §1, §2, §3, §8

[9] = system: Bacillus subtilis (ATCC 6051); experiment: MIC in broth, Gram+ strains; conditions: ATCC6051, B. subtilis (ATCC 6051), Mueller-Hinton broth, 37° C., 18 hours, read-out: Minimal Inhibitory Concentration (MIC)
Procedure: as §6, §7, §1, §2, §3, §8

[10] = system: Bacillus pumilus (CN 607); experiment: MIC in broth, Gram+ strains; conditions: B. pumilus (CN 607), Mueller-Hinton broth, 37° C., 18 hours, read-out: Minimal Inhibitory Concentration (MIC)
Procedure: as §6, §7, §1, §2, §3, §8

[11] = system: Streptococcus faecalis (UM); experiment: MIC in broth, Gram+ strains; conditions: Enterococcus faecalis; S. faecalis (UM), Mueller-Hinton broth, 37° C., 18 hours; read-out: Minimal Inhibitory Concentration (MIC)
Procedure: as §6, §7, §1, §2, §3, §8

[12] = system: Streptococcus faecalis (509); experiment: MIC in broth, Gram+ strains; conditions: Enterococcus faecalis; S. faecalis (509), Mueller-Hinton broth, 37° C., 18 hours; read-out: Minimal Inhibitory Concentration (MIC)
Procedure: as §6, §7, §1, §2, §3, §8

[13] = system: Streptococcus faecalis (505); experiment: MIC in broth, Gram+ strains; conditions: Enterococcus faecalis; S. faecalis (505), Mueller-Hinton broth, 37° C., 18 hours; read-out: Minimal Inhibitory Concentration (MIC)
Procedure: as §6, §7, §1, §2, §3, §8

[14] = system: Staphylococcus aureus (ATCC 14154); experiment: MIC in broth, Gram+ strains; conditions: ATCC14154, S. aureus (ATCC 14154), Mueller-Hinton broth, 37° C., 18 hours, read-out: Minimal Inhibitory Concentration (MIC)
Procedure: as §6, §7, §1, §2, §3, §8

[15] = system: Staphylococcus aureus (306 MR); experiment: MIC in broth, Gram+ strains; conditions: S. aureus (306 MR), Mueller-Hinton broth, 37° C., 18 hours, read-out: Minimal Inhibitory Concentration (MIC)
Procedure: as §6, §7, §1, §2, §3, §8

[16] = system: Streptococcus faecalis (501); experiment: MIC in broth, Gram+ strains; conditions: Enterococcus faecalis; S. faecalis (501), Mueller-Hinton broth, 37° C., 18 hours; read-out: Minimal Inhibitory Concentration (MIC)
Procedure: as §6, §7, §1, §2, §3, §8

[17] = system: Streptococcus faecalis (R 2); experiment: MIC in broth, Gram+ strains; conditions: Enterococcus faecalis; S. faecalis (R 2), Mueller-Hinton broth, 37° C., 18 hours; read-out: Minimal Inhibitory Concentration (MIC)
Procedure: as §6, §7, §1, §2, §3, §8

[18] = Gram- strains, versus susceptible strains

SMILES	MIC (Escherichia coli (76 F)) [µg/mL]	MIC (Klebsiella oxytoca (552)) [µg/mL]	MIC [1] [µg/mL]	MIC [2] [µg/mL]	MIC (Gram- bacterial strains; [18]) [µg/mL]	MIC [3] [µg/mL]	MIC [4] [µg/mL]	MIC [5] [µg/mL]	MIC [6] [µg/mL]	MIC (Gram+ bacterial strains) [µg/mL]	MIC (Escherichia coli (92 F)) [µg/mL]	MIC [7] [µg/mL]	MIC (Proteus vulgaris (UM)) [µg/mL]	MIC (Gram- bacterial strains) [µg/mL]	MIC [9] [µg/mL]	MIC [10] [µg/mL]	MIC [12] [µg/mL]	MIC [14] [µg/mL]	MIC [15] [µg/mL]	MIC [16] [µg/mL]	also measured
CCCCCCCCCCCOC(=O)CC(C[N+](C)(C)C)OC(=O)CCCCCCCCCC (centres unmarked) [ST 982]	> 100	> 100	> 100	> 100	> 100	3.12	3.12	1.56	> 100	2.6											
CCCCCCCCCCCCCCCC(=O)OC(CC(=O)OCCCCCCCCCCC)C[N+](C)(C)C (centres unmarked) [ST 983]	> 100	> 100	> 100	> 100	> 100	> 100	> 100	> 100	> 100	> 100											
CCCCCCCCCCCCCCCCOC(=O)CC(C[N+](C)(C)C)OC(=O)CC(C)C (centres unmarked) [ST 1001]			> 100	> 100		12.5	3.12	3.12	6.25	5.35	> 100	> 100	> 100	> 100	12.5	6.25	3.12	6.25	6.25	3.12	MIC [8]: 3.12 µg/mL; MIC [11]: 3.12 µg/mL; MIC [13]: 3.12 µg/mL; MIC [17]: 3.12 µg/mL
CCCCCCCCCCCCOC(=O)CC(C[N+](C)(C)C)OC(=O)CC(C)C (centres unmarked) [ST 1037]			> 100	> 100	62.5	3.12	1.56	1.56	3.12	2.34	100	25	> 100		3.12	1.56	1.56	3.12	3.12	3.12	MIC [8]: 1.56 µg/mL; MIC [11]: 1.56 µg/mL; MIC [13]: 3.12 µg/mL; MIC [17]: 1.56 µg/mL
CCCCCCCCCCCCCOC(=O)CC(C[N+](C)(C)C)OC(=O)C(C)CCCC (centres unmarked) [ST 1051]		> 100	> 100						6.25	6.56	> 100	> 100	> 100	> 100		1.56	6.25		12.5	6.25	
CCCCCCCCCCCOC(=O)CC(C[N+](C)(C)C)OC(=O)CCCCCCC (centres unmarked) [ST 1000]	> 100	> 100	> 100	> 100		1.56	3.12	3.12		2.49				> 100				1.56	3.12		
CCCCCCCCCCCCCOC(=O)CC(C[N+](C)(C)C)OC(=O)CCCCC (centres unmarked) [ST 1052]		> 100	> 100						3.12	2.49	> 100	> 100	> 100	> 100	3.12	1.56	1.56		3.12	3.12	
CCCCCCCCCCCCCOC(=O)CC(C[N+](C)(C)C)OC(=O)CCCCCCC (centres unmarked) [ST 1053]		> 100	> 100						6.25	4.37	> 100	> 100	> 100	> 100		1.56	1.56		6.25	6.25	
CCCCCCCCCCCCCOC(=O)CC(C[N+](C)(C)C)OC(=O)CCCCCC (centres unmarked) [ST 1050]		> 100	> 100						6.25	4.06	> 100	> 100	> 100	> 100		1.56	3.12		6.25	3.12	
CCCCCCCCCCCCCOC(=O)CC(C[N+](C)(C)C)OC(=O)CC(C)C (centres unmarked) [ST 1033]			> 100	> 100	100	1.56	1.56	1.56	3.12	2.11	> 100	100	> 100		3.12	1.56	1.56	3.12	3.12	3.12	MIC [8]: 1.56 µg/mL; MIC [11]: 1.56 µg/mL; MIC [13]: 1.56 µg/mL; MIC [17]: 1.56 µg/mL
